From patent US20170042936A1, “COMPOSITION FOR LOCAL AND CONTROLLED RELEASE OF DRUGS AND METHODS THEREOF” (INEB - INSTITUTO NACIONAL DE ENGENHARIA BIOMÉDICA, priority 2014, published 2017)
Entries after “also recorded” stand apart in the source; their conditions may differ.

Experiments:
MC3T3-E1 cells [1] = assay: Cell morphology on granules by SEM and confocal laser scanning microscopy; type: cell-based, mouse; settings: in presence of vancomycin
Method: (§1) The pre-osteoblasts MC3T3-E1 cells, an osteoblastic cell line derived from mouse calvaria, were grown in alpha minimum essential medium (α-MEM, Gibco, Life Technologies, Grand Island, N.Y.), supplemented with 1% penicillinstreptomycin (Gibco) and 10% fetal bovine serum (FBS, Invitrogen, Carlsbad, Calif.). Cells were incubated in a humidified environment at 37° C. and 5% of CO2. Vancomycin adsorption on granules was performed as mentioned earlier. Granules were placed in 96-well plates, and cells were seeded using a density of 5×10^4 cells/mL. Cells were cultured for 21 days, and medium was changed three times a week. As control, cells were cultured on tissue culture polystyrene (TCPS) with the same conditions used for the granules. For each condition, six replicates were used for the resazurin assay.
Granules with seeded cells were rinsed with PBS and fixer using 1.5% gluteraldehyde (v/v) (Agar) in 0.14 M sodium cacodyl-ate buffer (Merck, Kenilworth, N.J.) at RT for 30 min. The samples were washed twice with PBS and then dehydrated in graded series of ethanol. Hexamethyldisilazane (Sigma) was added, and the samples were dried overnight at RT. Granules were visualized on SEM as previously described.
Confocal laser scanning microscopy. Granules with seeded cells were fixed using 4% paraformaldehyde for 15 min and then washed twice with PBS. Triton X-100 0.1% was used, for 5 min, to permeabilize the cells, and the cells were then incubated in 1% bovine serum albumin at 37° C. for 30 min. After incubation, the staining of the F-actin filaments was performed using Alexa Fluor 594 Phalloidin (1:100, Molecular Probes A12379, Invitrogen) in 1% bovine serum albumin at RT for 20 min in dark. The samples were then washed twice with PBS. Cell nuclei were stained with a solution of Hoechst dye (1:1000, Sigma) in PBS at RT for 15 min in dark. Finally, the samples were washed twice with PBS, and one drop of Vectashield was added. The images were acquired with a Leica SP5 Confocal microscope, using a […] oil immersion objective. […]

S. aureus ATCC 25923 = settings: cited from earlier work
MC3T3-E1 cells [2] = assay: Metabolic activity of pre-osteoblasts (resazurin) in presence of released vancomycin; type: cell-based, mouse
Method: as §1
In an embodiment, the metabolic activity was also performed. The nontoxic alamar blue (resazurin) dye was used to determine the metabolic activity of MC3T3-E1 cells. The blue nonfluorescent dye is metabolized by cells, converting it to a reduced pink fluorescence dye. Therefore, 10% (v/v) of resazurin was added to the medium and incubated for 4 h at 37° C. and 5% of CO2. Afterward, 100 μL was transferred into a black 96-well plate, and fluorescence was measured at 530 nm excitation and 590 nm emission wavelength with a fluorescence reader (SynergyMix, BioTek, Winooski, Vt.) using Gen5 1.09 Data Analysis Software. These measurements were made at 24 h and 4, 7, 14, and 21 days of culture.

SMILES: CN[C@H](CC(C)C)C(=O)N[C@H]1C(=O)N[C@@H](CC(N)=O)C(=O)N[C@H]2C(=O)N[C@H]3C(=O)N[C@H](C(=O)N[C@H](C(=O)O)c4cc(O)cc(O)c4-c4cc3ccc4O)[C@H](O)c3ccc(c(Cl)c3)Oc3cc2cc(c3O[C@@H]2O[C@H](CO)[C@@H](O)[C@H](O)[C@H]2O[C@H]2C[C@](C)(N)[C@H](O)[C@H](C)O2)Oc2ccc(cc2Cl)[C@H]1O [vancomycin]
- MC3T3-E1 cell morphology (confocal microscopy) (MC3T3-E1 cells [1]; 24 h and 4 days): more rounded morphology
- MC3T3-E1 cell morphology (confocal microscopy) (MC3T3-E1 cells [1]; after 7 days): started to elongate on the surface of the material
- MC3T3-E1 cell morphology (confocal microscopy) (MC3T3-E1 cells [1]; after 14 days): well spread, covering the entire surface
- vancomycin minimum inhibitory concentration (MIC) (S. aureus ATCC 25923): 1 µg/mL
- viability of osteoblast cells in presence of vancomycin (MC3T3-E1 cells [2]; vancomycin released from heparinized granules, after 14 days of culture): cells were able to remain viable; also recorded: did not affect the viability of MC3T3-E1 cells
- metabolic activity of MC3T3-E1 cells versus without vancomycin (MC3T3-E1 cells [2]; vancomycin released from heparinized nanoHA/collagen granules, 24 h of culture): no difference in the metabolic activity
- metabolic activity of MC3T3-E1 cells (MC3T3-E1 cells [2]; vancomycin released from heparinized nanoHA/collagen granules, after 14 days up to 21 days of culture): increased their metabolic activity
- metabolic activity of MC3T3-E1 cells (MC3T3-E1 cells [2]; vancomycin released from heparinized nanoHA/collagen granules, until 7 days of culture): decrease in metabolic activity
